Like-named read-outs stand apart in the source and are kept apart here.

Test [1] addresses T1, hGluN1/hGluN2B(V558I) (Homo sapiens, UniProt Q05586+Q13224, V558I). To be noted: read-out: Glutamate EC50; calculated from ratio of responses to two glutamate concentrations, h fixed at 1.4.
In test [2] the target is T2, hGluN1/hGluN2B(V618G) (Homo sapiens, UniProt Q05586+Q13224, V618G). Particulars: read-out: Glutamate EC50; calculated from ratio of responses to two glutamate concentrations, h fixed at 1.4.
Test [3] deals with T3, hGluN1/hGluN2B(L825V) (Homo sapiens, UniProt Q05586+Q13224, L825V). To be noted: read-out: Glutamate EC50; calculated from ratio of responses to two glutamate concentrations, h fixed at 1.4.
Test [4] has as its target T4, hGluN1/hGluN2B(G820A) (Homo sapiens, UniProt Q05586+Q13224, G820A). To be noted: read-out: Glutamate EC50; calculated from ratio of responses to two glutamate concentrations, h fixed at 1.4.
For test [5], the target named is T3, hGluN1/hGluN2B(L825V). Description: cell-based. Particulars: read-out: Glycine EC50.
In test [6] the target is T1, hGluN1/hGluN2B(V558I). Description: cell-based. To be noted: read-out: Glycine EC50.
In a further test the target is hGluN1/hGluN2B(E657G) (Homo sapiens, UniProt Q05586+Q13224, E657G). Description: cell-based. Particulars: read-out: Glycine EC50.
Test [7] addresses T4, hGluN1/hGluN2B(G820A). The experiment in a line: cell-based. To be noted: read-out: Glycine EC50.
The target in another test is hGluN1/hGluN2B(N615I) (Homo sapiens, UniProt Q05586+Q13224, N615I). Description: cell-based. To be noted: read-out: Glycine EC50.
The target in test [8] is T2, hGluN1/hGluN2B(V618G). Description: cell-based. To be noted: read-out: Glycine EC50.
Test [9] relates to C57BL/6 mice (control) and BALB/c mice. Description: Three-chamber social behavior test. In kind it is in vivo. Particulars: intraperitoneal, 1 and 10 mg/kg, dissolved in cyclodextrine. The text has this: In in vivo experiments, the effect of the steroid 20-oxo-5β-pregnan-3-ylidene-4′-but-2-enoic acid on C57BL/6 mice (control) and BALB/c mice was compared. BALB/c mice show a higher rate of anxiety behavior and lower socialization, which is considered to be a certain equivalent of autistic manifestations in humans.

Test [10] deals with T1, hGluN1/hGluN2B(V558I). The experiment in a line: Whole-cell patch clamp, steroid potentiation of responses tonically activated by low concentration of glutamate. In kind it is cell-based. More on the design: The amino acids are numbered on the basis of the full-length protein, including the signal peptide; expressed in transfected cells; host or cells: HEK293T. Particulars: PA-But 15 μmol · l^−1; HEK293T; mean ± SEM. The procedure:
(§1) Human embryonic kidney-293T (HEK293T) cells were used for transfection of human genes encoding for NMDA receptor subunits: hGluN1 (GenBank, accession number NP_015566) and hGluN2B (GenBank, accession number NP_000825). Equal amounts ([…]) of DNA encoding for GluN1 and GluN2B were mixed with 0.9 μl Matra-A Reagent (IBA, Gottingen, Germany) and added to confluent HEK293T cells. After trypsinization, the cells were resuspended in Opti-MEM I (ThermoFisher Scientific, Paisley, UK; Cat. #31985062) containing 1% fetal bovine serum supplemented with 15 mmol·l^−1 MgCl2, 1 mmol·l^−1 D,L-2-amino-5-phosphonopentanoic acid (D,L-AP5), and 1 μmol.l^−1 ketamine.
(§2) Mutations in the GluN2B subunit were made using the QuickChange Site-Directed Mutagenesis Kit (Agilent Technologies, Santa Clara, Calif., USA) according to the manufacturer's instructions. Mutated cDNA was transformed into ultra-competent XL1Gold E. coli cells, multiplied, positive clones were selected, and the isolated plasmide DNA was verified by sequencing (SEQme s.r.o., Dobris, Czechia, or GATC Biotech AG, Constance, Germany) All mutations were verified by DNA sequencing. Transfected HEK293T cells were identified by GFP epifluorescence. The amino acids are numbered on the basis of the full-length protein, including the signal peptide.
(§3) Experiments were performed 12-36 h after the end of transfection on cultured HEK293T cells transfected with vectors containing hGluN1/hGluN2B/GFP. Whole-cell voltage clamp current recordings were performed at room temperature (21-25° C.) at a holding potential of −60 mV using a patch-clamp amplifier (Axopatch 200B; Molecular Devices, Sunnyvale, Calif., USA) after a capacitance and series resistance (<10 MΩ) compensation of 80-90%. Data were collected (low-pass filtered at 2 kHz and sampled at 10 kHz) and analyzed using pClamp 10 (Molecular Devices). Patch pipettes (3-5 MΩ) were filled with an intracellular solution (ICS) containing (in mmol·l^−1): 120 gluconic acid, 15 CsCl, 10 BAPTA, 10 HEPES, 3 MgCl2, 1 CaCl2, and 2 ATP-Mg salt (pH-adjusted to 7.2 with CsOH) and extracellular solution (ECS) contained the following (in mmol·l^−1): 160 NaCl, 2.5 KCl, 10 HEPES, 10 glucose, 0.2 EDTA, and 0.7 CaCl2) (pH-adjusted to 7.3 with NaOH). […] The tested steroid solutions were made from freshly prepared 20 mmol·l^−1 20-oxopregn-5en-3β-yl sulfate (PE-S; pregnenolone sulfate), 5 mmol·l^−1 androst-5-en-3β-yl hemisuccinate (AND-hSuc), or 10 mmol·l^−1 20-oxo-5β-pregnan-3-yliden-4′-but-2-enoic acid stock in dimethyl sulfoxide (DMSO). The final dilution to ECS was made at 50° C. and followed by 1 min sonication (SONOREX DIGITEC DT 100/H, BADELIN electronic, Berlin, Germany) The same concentration of DMSO was added to all extracellular solutions. Control and test solution applications were made with a microprocessor-controlled multibarrel fast-perfusion system. The solution exchange rate was ˜15 ms. The following mutations of the gene encoding for hGluN2B subunit (GRIN2B) were tested: P553L; V558I; W607C; N615I; V618G; S628F; E657G; G820E; G820A; M824R; L825V. These mutations are located in the preM1, M2, M3, and M4 transmembrane domains of the receptor (FIG. 1).

In test [11] the target is T4, hGluN1/hGluN2B(G820A). The test is described as above. Particulars: PA-But 15 μmol · l^−1; HEK293T; mean ± SEM. More on the design: The amino acids are numbered on the basis of the full-length protein, including the signal peptide; expressed in transfected cells; host or cells: HEK293T. Format: cell-based. The procedure:
as §1, §2, §3

The target in test [12] is T2, hGluN1/hGluN2B(V618G). Described as above. More on the design: expressed in transfected cells; host or cells: HEK293T. To be noted: PA-But 15 μmol · l^−1; HEK293T; mean ± SEM. Format: cell-based. Here is the method: as §1, §2, §3
Test [13] concerns the target T3, hGluN1/hGluN2B(L825V). Described as above. In kind it is cell-based. More on the design: expressed in transfected cells; host or cells: HEK293T. Particulars: PA-But 15 μmol · l^−1; HEK293T; mean ± SEM. Here is the method:
as §1, §2, §3

Test [14] deals with T5, hGluN1/hGluN2B (WT) receptors (Homo sapiens, UniProt Q05586+Q13224).
T5 construct: expressed in transfected cells; host or cells: HEK293T
The test is described as above. Format: cell-based. To be noted: PA-But 15 μmol · l^−1; HEK293T; mean ± SEM. Here is the method:
as §1, §2, §3

On to `N[C@@H](CCC(=O)O)C(=O)O` [Glutamate, glutamate], for which the potency estimated from few doses is 1600 ± 300 nM on hGluN1/hGluN2B(V558I) [1], 1800 ± 200 nM at hGluN1/hGluN2B(V618G) [2], 1600 ± 200 nM at hGluN1/hGluN2B(L825V) [3] and 1500 ± 300 nM at hGluN1/hGluN2B(G820A) [4].

With `NCC(=O)O` [Glycine, glycine], the potency estimated from few doses on hGluN1/hGluN2B(L825V) [5] was 160 ± 10 nM; on hGluN1/hGluN2B(V558I) [6], 220 ± 50 nM; on hGluN1/hGluN2B(E657G), 390 ± 80 nM; at hGluN1/hGluN2B(G820A) [7] it was 200 ± 90 nM; at hGluN1/hGluN2B(N615I), 310 ± 20 nM; at hGluN1/hGluN2B(V618G) [8], 270 ± 20 nM.

Consider `CC(=O)[C@H]1CC[C@H]2[C@@H]3CC[C@@H]4CC(=CC=CC(=O)O)CC[C@]4(C)[C@H]3CC[C@]12C` [PA-But, 20-oxo-5β-pregnan-3-ylidene-4′-but-2-enoic acid], for which the “Social behavior (interest in the second mouse cage vs an empty cage)” value in test [9] is given as “greater interest in the second mouse cage than in an empty cage”. For the same compound, the “Potentiating effect (%)” value at hGluN1/hGluN2B(V558I) [10] is −9 ± 5 (4)^††; %; on hGluN1/hGluN2B(G820A) [11], 7 ± 3 (5)^††; %; on hGluN1/hGluN2B(V618G) [12], 67 ± 12 (3)^††; %; on hGluN1/hGluN2B(L825V) [13], 577 ± 78 (10)^††; %; in test [14], 212 ± 19 (22) %.
